Assay results published in the supplement of paper PMC10307832.

What was measured:
Experiment in all cases: relative viability (nuclei count vs DMSO), 5 days (fraction); higher = more cells survive
A-427 = system: A-427
Procedure, shortened: (§1)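 Lung cancer cell lines, seeded in 1536-well plates, were treated the following day by pin tool with a single drug or with five library-drug doses (not always all listed) in √10 steps on top of a fixed anchor-drug dose. Cells were fixed and nuclei stained in one step after 5 days, and nuclei were counted. Relative viability is the nuclei count for treated wells divided by that for vehicle wells, reported as medians of duplicate plates.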

ABC-1 = system: ABC-1
Procedure, shortened: as §1

EPLC-272H = system: EPLC-272H
Procedure, shortened: as §1

HCC-15 = system: HCC-15
Procedure, shortened: as §1

LC-2-ad = system: LC-2-ad
Procedure, shortened: as §1

LK-2 = system: LK-2
Procedure, shortened: as §1

NCI-H1734 = system: NCI-H1734
Procedure, shortened: as §1

NCI-H1793 = system: NCI-H1793
Procedure, shortened: as §1

NCI-H1915 = system: NCI-H1915
Procedure, shortened: as §1

NCI-H1944 = system: NCI-H1944
Procedure, shortened: as §1

NCI-H2009 = system: NCI-H2009
Procedure, shortened: as §1

NCI-H2023 = system: NCI-H2023
Procedure, shortened: as §1

NCI-H2342 = system: NCI-H2342
Procedure, shortened: as §1

NCI-H2347 = system: NCI-H2347
Procedure, shortened: as §1

NCI-H322M = system: NCI-H322M
Procedure, shortened: as §1

NCI-H358 = system: NCI-H358
Procedure, shortened: as §1

NCI-H441 = system: NCI-H441
Procedure, shortened: as §1

NCI-H522 = system: NCI-H522
Procedure, shortened: as §1

NCI-H647 = system: NCI-H647
Procedure, shortened: as §1

NCI-H838 = system: NCI-H838
Procedure, shortened: as §1

RERF-LC-KJ = system: RERF-LC-KJ
Procedure, shortened: as §1

SW 1573 = system: SW 1573
Procedure, shortened: as §1

UMC-11 = system: UMC-11
Procedure, shortened: as §1

Question: With Cc1cn(-c2cc(NC(=O)c3ccc(C)c(Nc4nccc(-c5cccnc5)n4)c3)cc(C(F)(F)F)c2)cn1 [Nilotinib] + Cc1nc(Nc2ncc(C(=O)Nc3c(C)cccc3Cl)s2)cc(N2CCN(CCO)CC2)n1 [Dasatinib] (partner 0.075 µM) as the compound, how does the relative viability (A-427; first compound 0.001 µM) read?
Answer: 0.663

Question: And the relative viability (A-427; first compound 0.003162 µM)?
Answer: 0.728

Question: And the relative viability (A-427; first compound 0.01 µM)?
Answer: 0.72

Question: What about the relative viability (A-427; first compound 0.03162 µM) of the same compound?
Answer: 0.54

Question: And the relative viability (A-427; first compound 0.1 µM)?
Answer: 0.1

Question: What about the relative viability (ABC-1; first compound 0.001 µM) of the same compound?
Answer: 0.557

Question: And the relative viability (ABC-1; first compound 0.003162 µM)?
Answer: 0.637

Question: What about the relative viability (ABC-1; first compound 0.01 µM) of the same compound?
Answer: 0.643

Question: And the relative viability (ABC-1; first compound 0.03162 µM)?
Answer: 0.554

Question: What about the relative viability (ABC-1; first compound 0.1 µM) of the same compound?
Answer: 0.24

Question: What about the relative viability (EPLC-272H; first compound 0.001 µM) of the same compound?
Answer: 0.303

Question: What about the relative viability (EPLC-272H; first compound 0.003162 µM) of the same compound?
Answer: 0.343

Question: What about the relative viability (EPLC-272H; first compound 0.01 µM) of the same compound?
Answer: 0.364

Question: And the relative viability (EPLC-272H; first compound 0.03162 µM)?
Answer: 0.226

Question: What about the relative viability (EPLC-272H; first compound 0.1 µM) of the same compound?
Answer: 0.107

Question: And the relative viability (HCC-15; first compound 0.001 µM)?
Answer: 0.607

Question: And the relative viability (HCC-15; first compound 0.003162 µM)?
Answer: 0.689

Question: What about the relative viability (HCC-15; first compound 0.01 µM) of the same compound?
Answer: 0.665

Question: What about the relative viability (HCC-15; first compound 0.03162 µM) of the same compound?
Answer: 0.456

Question: What about the relative viability (HCC-15; first compound 0.1 µM) of the same compound?
Answer: 0.433

Question: What about the relative viability (LC-2-ad; first compound 0.001 µM) of the same compound?
Answer: 0.512

Question: What about the relative viability (LC-2-ad; first compound 0.003162 µM) of the same compound?
Answer: 0.701

Question: What about the relative viability (LC-2-ad; first compound 0.01 µM) of the same compound?
Answer: 0.574

Question: And the relative viability (LC-2-ad; first compound 0.03162 µM)?
Answer: 0.43

Question: What about the relative viability (LC-2-ad; first compound 0.1 µM) of the same compound?
Answer: 0.387

Question: And the relative viability (LK-2; first compound 0.001 µM)?
Answer: 0.311

Question: And the relative viability (LK-2; first compound 0.003162 µM)?
Answer: 0.239

Question: And the relative viability (LK-2; first compound 0.01 µM)?
Answer: 0.294

Question: And the relative viability (LK-2; first compound 0.03162 µM)?
Answer: 0.247

Question: And the relative viability (LK-2; first compound 0.1 µM)?
Answer: 0.183

Question: What about the relative viability (NCI-H1734; first compound 0.001 µM) of the same compound?
Answer: 0.355

Question: What about the relative viability (NCI-H1734; first compound 0.003162 µM) of the same compound?
Answer: 0.477

Question: And the relative viability (NCI-H1734; first compound 0.01 µM)?
Answer: 0.506

Question: And the relative viability (NCI-H1734; first compound 0.03162 µM)?
Answer: 0.345

Question: What about the relative viability (NCI-H1734; first compound 0.1 µM) of the same compound?
Answer: 0.304

Question: What about the relative viability (NCI-H1793; first compound 0.001 µM) of the same compound?
Answer: 0.303

Question: And the relative viability (NCI-H1793; first compound 0.003162 µM)?
Answer: 0.407

Question: What about the relative viability (NCI-H1793; first compound 0.01 µM) of the same compound?
Answer: 0.459

Question: What about the relative viability (NCI-H1793; first compound 0.03162 µM) of the same compound?
Answer: 0.283

Question: What about the relative viability (NCI-H1793; first compound 0.1 µM) of the same compound?
Answer: 0.194

Question: What about the relative viability (NCI-H1915; first compound 0.001 µM) of the same compound?
Answer: 0.324

Question: What about the relative viability (NCI-H1915; first compound 0.003162 µM) of the same compound?
Answer: 0.314

Question: And the relative viability (NCI-H1915; first compound 0.01 µM)?
Answer: 0.354

Question: And the relative viability (NCI-H1915; first compound 0.03162 µM)?
Answer: 0.27

Question: And the relative viability (NCI-H1915; first compound 0.1 µM)?
Answer: 0.141

Question: What about the relative viability (NCI-H1944; first compound 0.001 µM) of the same compound?
Answer: 0.228

Question: And the relative viability (NCI-H1944; first compound 0.003162 µM)?
Answer: 0.206

Question: And the relative viability (NCI-H1944; first compound 0.01 µM)?
Answer: 0.217

Question: And the relative viability (NCI-H1944; first compound 0.03162 µM)?
Answer: 0.241

Question: What about the relative viability (NCI-H2009; first compound 0.001 µM) of the same compound?
Answer: 0.278

Question: And the relative viability (NCI-H2009; first compound 0.003162 µM)?
Answer: 0.258

Question: What about the relative viability (NCI-H2009; first compound 0.01 µM) of the same compound?
Answer: 0.261

Question: And the relative viability (NCI-H2009; first compound 0.03162 µM)?
Answer: 0.212

Question: And the relative viability (NCI-H2009; first compound 0.1 µM)?
Answer: 0.199

Question: And the relative viability (NCI-H2023; first compound 0.001 µM)?
Answer: 0.471

Question: What about the relative viability (NCI-H2023; first compound 0.003162 µM) of the same compound?
Answer: 0.569

Question: And the relative viability (NCI-H2023; first compound 0.01 µM)?
Answer: 0.828

Question: What about the relative viability (NCI-H2023; first compound 0.03162 µM) of the same compound?
Answer: 0.418

Question: What about the relative viability (NCI-H2023; first compound 0.1 µM) of the same compound?
Answer: 0.405

Question: What about the relative viability (NCI-H2342; first compound 0.001 µM) of the same compound?
Answer: 0.277

Question: And the relative viability (NCI-H2342; first compound 0.003162 µM)?
Answer: 0.303

Question: What about the relative viability (NCI-H2342; first compound 0.01 µM) of the same compound?
Answer: 0.302

Question: And the relative viability (NCI-H2342; first compound 0.03162 µM)?
Answer: 0.273

Question: What about the relative viability (NCI-H2342; first compound 0.1 µM) of the same compound?
Answer: 0.298

Question: What about the relative viability (NCI-H2347; first compound 0.001 µM) of the same compound?
Answer: 0.302

Question: What about the relative viability (NCI-H2347; first compound 0.003162 µM) of the same compound?
Answer: 0.344

Question: And the relative viability (NCI-H2347; first compound 0.01 µM)?
Answer: 0.344

Question: And the relative viability (NCI-H2347; first compound 0.03162 µM)?
Answer: 0.267

Question: What about the relative viability (NCI-H2347; first compound 0.1 µM) of the same compound?
Answer: 0.264

Question: And the relative viability (NCI-H322M; first compound 0.001 µM)?
Answer: 0.295

Question: What about the relative viability (NCI-H322M; first compound 0.003162 µM) of the same compound?
Answer: 0.279

Question: And the relative viability (NCI-H322M; first compound 0.03162 µM)?
Answer: 0.282

Question: What about the relative viability (NCI-H322M; first compound 0.1 µM) of the same compound?
Answer: 0.234

Question: What about the relative viability (NCI-H358; first compound 0.001 µM) of the same compound?
Answer: 0.177

Question: What about the relative viability (NCI-H358; first compound 0.003162 µM) of the same compound?
Answer: 0.153

Question: And the relative viability (NCI-H358; first compound 0.01 µM)?
Answer: 0.18

Question: What about the relative viability (NCI-H358; first compound 0.03162 µM) of the same compound?
Answer: 0.178

Question: And the relative viability (NCI-H358; first compound 0.1 µM)?
Answer: 0.157

Question: And the relative viability (NCI-H441; first compound 0.001 µM)?
Answer: 0.523

Question: And the relative viability (NCI-H441; first compound 0.003162 µM)?
Answer: 0.712

Question: And the relative viability (NCI-H441; first compound 0.01 µM)?
Answer: 0.632

Question: And the relative viability (NCI-H441; first compound 0.03162 µM)?
Answer: 0.369

Question: And the relative viability (NCI-H441; first compound 0.1 µM)?
Answer: 0.417

Question: And the relative viability (NCI-H522; first compound 0.001 µM)?
Answer: 0.851

Question: And the relative viability (NCI-H522; first compound 0.003162 µM)?
Answer: 0.873

Question: What about the relative viability (NCI-H522; first compound 0.01 µM) of the same compound?
Answer: 1.16

Question: What about the relative viability (NCI-H522; first compound 0.03162 µM) of the same compound?
Answer: 0.715

Question: And the relative viability (NCI-H522; first compound 0.1 µM)?
Answer: 0.596

Question: And the relative viability (NCI-H647; first compound 0.001 µM)?
Answer: 0.195

Question: What about the relative viability (NCI-H647; first compound 0.003162 µM) of the same compound?
Answer: 0.274

Question: What about the relative viability (NCI-H647; first compound 0.01 µM) of the same compound?
Answer: 0.262

Question: What about the relative viability (NCI-H647; first compound 0.03162 µM) of the same compound?
Answer: 0.101

Question: What about the relative viability (NCI-H647; first compound 0.1 µM) of the same compound?
Answer: 0.0706

Question: And the relative viability (NCI-H838; first compound 0.001 µM)?
Answer: 0.279

Question: And the relative viability (NCI-H838; first compound 0.003162 µM)?
Answer: 0.302

Question: And the relative viability (NCI-H838; first compound 0.01 µM)?
Answer: 0.278

Question: And the relative viability (NCI-H838; first compound 0.03162 µM)?
Answer: 0.268

Question: And the relative viability (NCI-H838; first compound 0.1 µM)?
Answer: 0.291

Question: What about the relative viability (RERF-LC-KJ; first compound 0.001 µM) of the same compound?
Answer: 0.716

Question: What about the relative viability (RERF-LC-KJ; first compound 0.003162 µM) of the same compound?
Answer: 0.947

Question: What about the relative viability (RERF-LC-KJ; first compound 0.01 µM) of the same compound?
Answer: 0.833

Question: And the relative viability (RERF-LC-KJ; first compound 0.03162 µM)?
Answer: 0.71

Question: What about the relative viability (RERF-LC-KJ; first compound 0.1 µM) of the same compound?
Answer: 0.549

Question: And the relative viability (SW 1573; first compound 0.001 µM)?
Answer: 0.398

Question: What about the relative viability (SW 1573; first compound 0.003162 µM) of the same compound?
Answer: 0.455

Question: What about the relative viability (SW 1573; first compound 0.01 µM) of the same compound?
Answer: 0.749

Question: And the relative viability (SW 1573; first compound 0.03162 µM)?
Answer: 0.234

Question: What about the relative viability (SW 1573; first compound 0.1 µM) of the same compound?
Answer: 0.261

Question: What about the relative viability (UMC-11; first compound 0.001 µM) of the same compound?
Answer: 0.41

Question: What about the relative viability (UMC-11; first compound 0.003162 µM) of the same compound?
Answer: 0.655

Question: What about the relative viability (UMC-11; first compound 0.01 µM) of the same compound?
Answer: 0.649

Question: And the relative viability (UMC-11; first compound 0.1 µM)?
Answer: 0.247
